Experimental data: publication PMC11851430, “Workflow for E3 Ligase Ligand Validation for PROTAC Development” (ACS Chemical Biology, 2025)

What was measured:
ABL1 = biological target: T1, ABL1 (Homo sapiens, UniProt P00519); experiment: Kinobeads selectivity profiling; assay type: binding; conditions: Jurkat lysate, dose series given in nM, read-out: Kd (apparent dissociation constant, corrected for protein depletion)
T1 construct: endogenous in cells; host or cells: Jurkat (Clone E6.1) cell lysate
Method: Excitation and emission filters […]
curve. […] Measurements were
Kinobeads selectivity profiling of PROTACs
(Multiplexion, Heidelberg, Germany).
The cell lysate was ultracentrifuged and diluted
NaF, 1 mM DTT, protease inhibitors and phosphatase inhibitors to a final concentration of 5 mg/ml as determined by Bradford assay. For selectivity profiling of compounds the cell lysate (2.5 mg of total proteins per pulldown) was pre-incubated with increasing compound […]
µM) for 45 min at 4 °C in an end-over-end shaker. Subsequently, lysates were incubated with Kinobeads epsilon (17 µL settled beads) for 30 min at 4 °C. To assess the degree of protein depletion from the lysates by Kinobeads, the flow-through of the DMSO control was recovered […]
for a pulldown of pulldown experiment where the lysate was incubated a second time with fresh Kinobeads. Beads were washed in 3 steps with buffer containing 0.4%, 0.2% and no NP40.
Bound proteins were reduced with 50 mM DTT in 8 M Urea, 40 mM Tris-HCl pH 7.4 for 30 min at room temperature. After alkylation with 55 mM chloroacetamide (CAA), the Urea concentration was reduced to 1 – 2 M and proteins were digested using trypsin. Acidified peptides were desalted and concentrated using SepPak tC18 µEluation plates (Waters).
Samples were frozen, dried by vacuum centrifugation and stored at -20 °C.
LC-MS2 analysis. Peptides were measured on a Dionex Ultimate3000 nano HPLC coupled online to an Orbitrap Fusion Lumos (Thermo Fisher Scientific) mass spectrometer.
Peptides were dissolved in 0.1% formic acid and delivered to a trap column (ReproSil-pur C18-AQ, 5 μm, Dr. Maisch, 20 mm × 75 μm, self-packed) at a flow rate of 5 μL/min in LC solvent A (0.1 % formic acid).4 After 10 min of loading, peptides were transferred to an analytical column (ReproSil Gold C18-AQ, 3 μm, Dr. Maisch, 400 mm × 75 μm, self-packed) and separated using […]
acetonitrile) in LC solvent A.
The Orbitrap Fusion Lumos was operated as follows: positive polarity; spray voltage 2.1 kV, […]
A full-scan (MS1) was recorded from 360 to 1300 m/z with a resolution of 60,000 in the Orbitrap in profile mode. The MS1 AGC target was set to 4e5 and the maxIT was set to 50 ms, RF lens value was set to 50%. Based on the full scans, precursors were targeted for the MS/MS scans […]
intensity exceeded 2.5e4. The dynamic exclusion was set to 30 sec and exclude isotopes was switched on. The MS2 quadrupole isolation window was set to 1.7 m/z. Peptide fragmentation occurred in the ion routing multipole (IRM) by HCD with a fixed collision energy mode, the […]

[1] = biological target: T2, kinase protein levels in MCF-7 cells (Homo sapiens, UniProt A0A0U1RRE5); experiment: TMT-labeled quantitative proteomics; assay type: cell-based; conditions: protein NBDY; MCF7; 1 µM; set2
T2 construct: endogenous in cells; host or cells: MCF-7
T2 sequence (A0A0U1RRE5 1-68): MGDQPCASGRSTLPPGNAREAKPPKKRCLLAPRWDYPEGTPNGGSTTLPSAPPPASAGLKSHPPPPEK

T1 sequence (P00519 whole entry): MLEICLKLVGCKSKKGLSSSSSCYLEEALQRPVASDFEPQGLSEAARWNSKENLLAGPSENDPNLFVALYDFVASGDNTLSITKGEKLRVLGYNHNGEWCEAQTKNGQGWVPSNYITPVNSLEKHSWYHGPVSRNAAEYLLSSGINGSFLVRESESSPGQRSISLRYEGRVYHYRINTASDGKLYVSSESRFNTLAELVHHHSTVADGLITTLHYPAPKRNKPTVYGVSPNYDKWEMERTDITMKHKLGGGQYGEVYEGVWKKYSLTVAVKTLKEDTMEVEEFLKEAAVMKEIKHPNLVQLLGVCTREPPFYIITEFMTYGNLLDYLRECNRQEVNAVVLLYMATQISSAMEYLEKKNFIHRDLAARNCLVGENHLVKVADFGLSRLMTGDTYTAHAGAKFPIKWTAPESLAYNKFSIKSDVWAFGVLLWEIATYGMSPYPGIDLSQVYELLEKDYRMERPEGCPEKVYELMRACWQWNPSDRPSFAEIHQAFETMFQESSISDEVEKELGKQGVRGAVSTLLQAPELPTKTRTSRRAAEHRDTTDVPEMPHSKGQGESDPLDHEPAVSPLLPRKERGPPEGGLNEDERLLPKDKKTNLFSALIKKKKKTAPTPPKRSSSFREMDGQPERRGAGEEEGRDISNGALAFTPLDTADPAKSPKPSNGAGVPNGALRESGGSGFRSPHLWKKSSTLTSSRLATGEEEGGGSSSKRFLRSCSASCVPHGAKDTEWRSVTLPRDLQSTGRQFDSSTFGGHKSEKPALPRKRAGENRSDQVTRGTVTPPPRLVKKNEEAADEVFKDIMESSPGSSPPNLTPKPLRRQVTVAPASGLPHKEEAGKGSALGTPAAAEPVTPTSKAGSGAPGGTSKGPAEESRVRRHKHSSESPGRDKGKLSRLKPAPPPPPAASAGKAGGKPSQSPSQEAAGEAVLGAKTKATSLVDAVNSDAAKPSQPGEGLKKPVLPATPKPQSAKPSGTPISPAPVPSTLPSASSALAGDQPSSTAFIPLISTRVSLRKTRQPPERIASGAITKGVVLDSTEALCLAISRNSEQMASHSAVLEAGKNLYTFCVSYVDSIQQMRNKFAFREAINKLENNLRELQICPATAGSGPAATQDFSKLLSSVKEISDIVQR

Kd (ABL1) [nM] | P.Value (compound/DMSO) [1] | log2FC (compound/DMSO) [1] | SMILES
2200 | – | – | CC(C)(C)OC(=O)NCCOCCOCCOCCOCCC(=O)N1CCN(c2cc(Nc3cc(C4CC4)[nH]n3)nc(Nc3ccc(CC#N)cc3)n2)CC1 [4-L]
– | 0.09776 | 0.2849 | CC(=O)N[C@H](C(=O)N1C[C@H](O)C[C@H]1C(=O)NCc1ccc(-c2scnc2C)cc1OCCOCCOCCOCCOCCC(=O)N1CCN(c2ccc(Nc3ncc(Cl)c(Nc4ccccc4C(N)=O)n3)cc2)CC1)C(C)(C)C [6-e]
4950 | – | – | CC(C)(C)OC(=O)NCCCOCCOCCOCCCNC(=O)c1cc(Nc2cc(C3CC3)[nH]n2)nc(Nc2ccc(CC#N)cc2)n1 [5-L]
– | 0.05637 | -0.3112 | CC(=O)N[C@H](C(=O)N1C[C@H](O)C[C@H]1C(=O)NCc1ccc(-c2scnc2C)cc1OCCOCCOCCOCCNC(=O)c1cc(Nc2cc(C3CC3)[nH]n2)nc(Nc2ccc(CC#N)cc2)n1)C(C)(C)C [5-b]
